# Assay results as given in paper PMC9519446, “Discovery of an Orally Active Benzoxaborole Prodrug Effective in the Treatment of Chagas Disease in Non-human Primates” (Nature microbiology, 2022).
# Tested on: recombinant T. cruzi proteins
# Experiment: Luminex-based multiplex serological assay (IgG to recombinant T. cruzi proteins)
# Assay type: in vivo, rhesus macaques (Macaca mulatta)
# Conditions: for IgG response to G10 (36) / IgG response to Kn107 (20) / IgG response to Tc1 (3) / IgG response to Tc2 (6) / IgG response to Tc3 (11) / IgG response to Tc4 (16) / IgG response to Tc5 (22) / IgG response to Tc7 (27) / IgG response to Tc8 (31) / IgG response to Tc11 (35) / IgG response to Tc17 (51) / IgG response to Tc lysate (50): treated animal T19
# Method: Luminex-based multiplex serological assays were performed as previously described, [17]. For a number of smaller proteins, fusions of up to 2 individual genes are employed for some target proteins in order to expand the array of antibodies being detected while controlling costs and complexity of the assay. (TritrypDb.org identifiers: Tc1= fusion of TcBrA4_0116860 and TcYC6_0028190; Tc2= fusion of TcBrA4_0088420 and TcBrA4_0101960; Tc3 = fusion of TcBrA4_0104680 and TcBrA4_0101980; Tc4= fusion of TcBrA4_0028480 and TcBrA4_0088260; Tc5 = fusion of TcYC6_0100010 and TcBrA4_0074300; Tc7 = fusion of TcYC6_0083710 and TcBrA4_0130080; Tc8 = TcYC6_0037170; Tc11 = TcYC6_0124160; Tc17 = fusion of TcBrA4_0028230 and TcBrA4_0029760; Kn107 = TcCLB.508355.250; G10 = TcCLB.504199.20). Macaque antibody binding to individual beads in the Multiplex assays was detected with donkey anti-human IgG (H+L) conjugated to phycoerythrin (Jackson ImmunoResearch) in a 1:200 dilution.
smiles,measurement,setting,value
Cc1c(C(=O)N[C@H](C(=O)OCC2CCOCC2)C(C)C)ccc2c1B(O)OC2 [AN15368],IgG levels to recombinant T. cruzi proteins over time,"treated NHP, up to 42 months after end of treatment",Declining IgG levels
same,IgG response to G10 (36),2017-09-13,45.3
same,IgG response to Kn107 (20),2017-09-13,5.3
same,IgG response to Tc1 (3),2017-09-13,4561.8
same,IgG response to Tc2 (6),2017-09-13,786.0
same,IgG response to Tc3 (11),2017-09-13,-22.8
same,IgG response to Tc4 (16),2017-09-13,35.3
same,IgG response to Tc5 (22),2017-09-13,-9.5
same,IgG response to Tc7 (27),2017-09-13,2389.8
same,IgG response to Tc8 (31),2017-09-13,14652.0
same,IgG response to Tc11 (35),2017-09-13,292.3
same,IgG response to Tc17 (51),2017-09-13,1360.0
same,IgG response to Tc lysate (50),2017-09-13,2591.5
same,IgG response to G10 (36),2017-11-17,2.8
same,IgG response to Kn107 (20),2017-11-17,7.0
same,IgG response to Tc1 (3),2017-11-17,2671.5
same,IgG response to Tc2 (6),2017-11-17,364.3
same,IgG response to Tc3 (11),2017-11-17,25.0
same,IgG response to Tc4 (16),2017-11-17,39.3
same,IgG response to Tc5 (22),2017-11-17,-11.5
same,IgG response to Tc7 (27),2017-11-17,1520.3
same,IgG response to Tc8 (31),2017-11-17,12143.5
same,IgG response to Tc11 (35),2017-11-17,154.0
same,IgG response to Tc17 (51),2017-11-17,1317.5
same,IgG response to Tc lysate (50),2017-11-17,1854.3
same,IgG response to G10 (36),2017-12-06,38.0
same,IgG response to Kn107 (20),2017-12-06,21.8
same,IgG response to Tc1 (3),2017-12-06,2769.0
same,IgG response to Tc2 (6),2017-12-06,433.8
same,IgG response to Tc3 (11),2017-12-06,-25.8
same,IgG response to Tc4 (16),2017-12-06,11.8
same,IgG response to Tc5 (22),2017-12-06,33.5
same,IgG response to Tc7 (27),2017-12-06,1546.5
same,IgG response to Tc8 (31),2017-12-06,12008.3
same,IgG response to Tc11 (35),2017-12-06,211.8
same,IgG response to Tc17 (51),2017-12-06,1420.3
same,IgG response to Tc lysate (50),2017-12-06,1538.8
same,IgG response to G10 (36),2017-12-20,-55.8
same,IgG response to Kn107 (20),2017-12-20,36.8
same,IgG response to Tc1 (3),2017-12-20,2355.8
same,IgG response to Tc2 (6),2017-12-20,410.8
same,IgG response to Tc3 (11),2017-12-20,34.8
same,IgG response to Tc4 (16),2017-12-20,99.0
same,IgG response to Tc5 (22),2017-12-20,41.0
same,IgG response to Tc7 (27),2017-12-20,1365.3
same,IgG response to Tc8 (31),2017-12-20,9274.0
same,IgG response to Tc11 (35),2017-12-20,116.0
same,IgG response to Tc17 (51),2017-12-20,1322.5
same,IgG response to Tc lysate (50),2017-12-20,1584.0
same,IgG response to G10 (36),2018-01-09,36.5
same,IgG response to Kn107 (20),2018-01-09,76.0
same,IgG response to Tc1 (3),2018-01-09,3757.5
same,IgG response to Tc2 (6),2018-01-09,565.5
same,IgG response to Tc3 (11),2018-01-09,64.8
same,IgG response to Tc4 (16),2018-01-09,81.0
same,IgG response to Tc5 (22),2018-01-09,-22.0
same,IgG response to Tc7 (27),2018-01-09,1442.3
same,IgG response to Tc8 (31),2018-01-09,13021.3
same,IgG response to Tc11 (35),2018-01-09,357.0
same,IgG response to Tc17 (51),2018-01-09,2026.0
same,IgG response to Tc lysate (50),2018-01-09,2194.3
same,IgG response to G10 (36),2018-01-23,14.8
same,IgG response to Kn107 (20),2018-01-23,214.8
same,IgG response to Tc1 (3),2018-01-23,4009.3
same,IgG response to Tc2 (6),2018-01-23,590.8
same,IgG response to Tc3 (11),2018-01-23,-15.0
same,IgG response to Tc4 (16),2018-01-23,80.0
same,IgG response to Tc5 (22),2018-01-23,19.8
same,IgG response to Tc7 (27),2018-01-23,2161.8
same,IgG response to Tc8 (31),2018-01-23,13766.8
same,IgG response to Tc11 (35),2018-01-23,289.0
same,IgG response to Tc17 (51),2018-01-23,2186.0
